Earlier results in paper PMC6547379 (The European respiratory journal, 2018).

System: CF patients
Conditions: ref [34]

Cc1c(-c2ccnn2C)cc(C(=O)NCc2ccc(S(C)(=O)=O)cn2)c(=O)n1-c1cccc(C(F)(F)F)c1 [AZD9668]
effect on inflammation / lung function in CF patients: no effect on inflammation or lung function
